Experiments:
[1] = test system: histone H3 lysine 9 acetylation in H358 cells; assay: Western analysis of histone H3 lysine 9 acetylation/methylation; type: cell-based; settings: for suppression of histone H3K9 acetylation: 50 μM, 12 hours post start of treatment
Description: (A) Structures of 1a, and the acetylated side chain of a lysine residue within the polypeptide chain of a protein targeted by the acetylating enzyme (R1 and R2 are the main chain elements on both sides of the lysyl residue). (B) [^3H]-thymidine incorporation into DNA of H358 cells pulsed for 6 hrs at three different time points after the addition of increasing concentrations of 1a, i.e., at 6-12 hrs (12 hr curve), at 18-24 hours (24 hr curve), or at 42-48 hrs (48 hr curve). Incorporation is represented as a percentage relative to control (untreated) cells. (C) Cell cycle analysis of propidium iodide-stained cells harvested at various times after addition of 50 μM 1a. % of cells in G1, S, and G2 represents the average of two independent profiles. (D) Western analysis of histone H3 lysine 9 acetylation, histone H3 lysine 56 acetylation, histone H3 lysine 9 methylation, and total histone H3, before “c” or at the indicated times after addition of 50 μM 1a. Each lane represents 60 μg cellular protein.
Each lane represents 175 μg cell lysate protein.
One 6 cm culture dish of H358 cells per treatment was used. Cells were treated with 50 μM spm-2, spm-3, or spd-3a for 12 hours. Histones were extracted from cells in 0.2M H2SO4 (as described in Furuta, T., et al (2003) J. Biol. Chem. 278: 20303-20312), followed by SDS-PAGE and Western blotting. Blots were probed with anti-acetyl histone H3-lysine 9 (Upstate Biotechnology, Inc.)
Cells were lysed by adding 1 mL of 0.2 M H2SO4. Histones were recovered as described in reference. SDS-PAGE/Western analysis was carried out as previously described using rabbit monoclonal antibody to total histone H3, rabbit polyclonal anti-trimethyl histone H3 (lysine 9), and anti-acetyl histone H3 (lysine 9). All antibodies were purchased from Upstate Biotechnology Inc. (Lake Placid, N.Y.).
In FIG. 2D, we carried out an immunoblot analysis of total histone H3, histone H3 acetylated on lysine 9 (H3-K9Ac), histone H3 acetylated on lysine 56 (H3-K56Ac) and histone H3 methylated on lysine 9 (H3-MeK9) in H358 cells, before treatment, and after 1, 12, 18, and 24 hours of treatment with 50 μM 1a. […] Acetylation levels are restored by 24 hours.
One 10-cm plate of H358 lung cancer cells (about 2×10^6 cells), grown in DMEM+10% Fetal bovine serum as described in reference, were treated for 24 hours with 50 μM1a inhibitor. Cells lysates were prepared as we have previously described (Lee C, et al., 2005, Cancer Res 65:9834-9842). Treated cells and untreated (control) cells were harvested by lysing in buffer containing 10 mM Hepes pH 7.5, 100 mM NaCl, 300 mM sucrose, 3 mM MgCl2, 1 mM EDTA, 1 mM DTT, 0.5% Triton X-100, 1 mM PMSF, protease inhibitor pellet (Roche) and analyzed on 10% SDS-PAGE gels, followed by Western immunoblot analysis of total histone H3, methylated histone H3 (methylated on lysine 9), and acetylated histone H3 (acetylated on lysine 9). […] Histone H3 methylation was not affected.

H358 lung cancer cells = assay: 96-well MTS cell viability assay; type: cell-based
Description: Control cells were left untreated. […] Control cells were left untreated.
Cells were given fresh inhibitor on the first, second, and third days of treatment and viability was measured on the 4th day (i.e. 3 days post start of treatment).
(A) Structure of compound 2a. […] Averages of duplicate samples with standard deviations are shown.
(A) Structure of Spd-3a. (B) Western analysis of histone H3K9-acetylation and total histone H3, measured in control, untreated H358 lung cancer cells “C’ or in H358 cells incubated 12 hours in the presence of 50 μM Spd-2a or Spd-3a. Each lane represents 60 μg cellular protein. (C) [3H]-thymidine incorporation (counts per minute) into DNA of H358 cells during a 6 hour pulse beginning at 42 hours post-start of treatment. Treatments were as follows (bars 1-6 left to right): (1) control: no treatment; (2) CPT alone: 5 nM 18 hours; (3) 3a alone: 50 μM; (4-6) 3a+CPT: CPT (5 nm, 18 hours)+3a at indicated dose. After 18 hours, CPT was removed and medium was replaced with fresh medium containing Spd-3a at the indicated dose. Each bar represents the average of triplicates. (D) 3-day 96-well viability assay of H358 cells grown in the presence of increasing amounts of Spd-2a or Spd-3a, with or without CPT (5 nM 18 hours). […] Each data point represents the average of three wells.
Cells were plated in 96-well plates at 2000 cells per well and treated with the indicated doses of spd-3a. Cell viability was measured by the MTS assay 3 days later.
DLD-1 cells or H358 cells were plated in 96-well plates at 2000 cells per well and treated with the indicated doses of (A) spm-3 or (B) spm-2. (C) Cell viability was measured by the MTS assay 3 days later. Similar experiment using GT41 fibroblasts with spm2 or spm 3. Each assay point represents an average of duplicates.
Control cells received neither 1a nor camptothecin.
After overnight attachment, triplicate wells were treated with increasing concentrations of inhibitor 1a or 1b. Control wells were left untreated. One day later, and again 2 days later, the medium in the wells was removed and replaced with fresh medium containing 1a or 1b.

CC(C)(COP(=O)(O)OP(=O)(O)OC[C@H]1O[C@@H](n2cnc3c(N)ncnc32)[C@H](O)[C@@H]1OP(=O)(O)O)[C@@H](O)C(=O)NCCC(=O)NCCSCC(=O)NCCCNCCCCN [1a, spermidine[N1]-CoA]
effect on histone H3 lysine 9 methylation ([1]; 50 μM 1a): no effect
histone H3 lysine 9 acetyl groups lost ([1]; 50 μM 1a, within 1 hour): over 50%
histone H3 lysine 9 acetyl groups lost ([1]; 50 μM 1a, within 12 hours): ~98%
histone H3 K9 acetyl groups lost ([1]; Example 1: 50 μM 1a, 24 hours, cell lysate): over 80%
2-day cell viability, % of untreated cell viability (H358 lung cancer cells; 5 nM camptothecin + increasing concentrations of 1a): less than 10%

CC(=O)NCCSCC(=O)NCCCNCCCCN [3a]
suppression of histone H3K9 acetylation [1]: nearly complete ablation of histone H3K9 acetylation
suppression of histone H3K9 acetylation ([1]; listed as spd-3a): suppress histone acetylation
suppression of 3-day cell viability in combination with camptothecin (H358 lung cancer cells; 3a + CPT 5 nM 18 hours): effective

CC[C@@]1(O)C(=O)OCc2c1cc1n(c2=O)Cc2cc3ccccc3nc2-1 [camptothecin]
2-day cumulative cell viability relative to untreated, single agent (H358 lung cancer cells; 1a increasing concentrations, camptothecin 5 nM 18 hour): no effect

CC(=O)NCCSCC(=O)NCCCNCCCCNCCCN [spm-3]
suppression of histone H3K9 acetylation [1]: suppress histone acetylation
3-day cell viability, single agent (H358 lung cancer cells; single agent): effective as single agents
